Measured values as given in patent publication US6110956A, “N-aryloxyethylamine derivatives for the treatment of depression” (American Home Products Corp., priority 1999, dated 2000).
Where two headings read alike, the source gives them in different places.

Tests used:
human 5-HT1A receptor = target: T1, human 5-HT1A receptor (Homo sapiens, UniProt P08908); experiment: 5-HT1A receptor binding ([3H]8-OH-DPAT, 5-HT1A.CHO cell membranes); settings: for inhibition at 1 µM / inhibition at 0.01 µM: 0.5 h; for inhibition at 1 µM: read-out: 5-HT1A % @1000 nM; for inhibition at 0.01 µM: read-out: 5-HT1A % @10 nM
T1 construct: expressed in transfected cells
T1 sequence (P08908 1-422): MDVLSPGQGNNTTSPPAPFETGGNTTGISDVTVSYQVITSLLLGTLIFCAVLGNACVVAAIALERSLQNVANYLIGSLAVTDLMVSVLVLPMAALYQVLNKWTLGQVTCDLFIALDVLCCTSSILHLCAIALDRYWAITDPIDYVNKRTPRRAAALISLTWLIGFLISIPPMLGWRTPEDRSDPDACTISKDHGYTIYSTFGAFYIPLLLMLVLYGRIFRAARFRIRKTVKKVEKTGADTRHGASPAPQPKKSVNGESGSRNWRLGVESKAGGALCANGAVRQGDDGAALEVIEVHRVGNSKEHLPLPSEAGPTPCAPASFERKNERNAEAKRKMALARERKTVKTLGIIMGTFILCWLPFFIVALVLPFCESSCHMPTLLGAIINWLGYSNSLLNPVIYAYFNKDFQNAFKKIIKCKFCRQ
Protocol: (§1) The PCR cloning of the human 5-HT1A receptor subtype from a human genomic library has been described previously Chanda et al., Mol. Pharmacol., 43:516 (1993). A stable Chinese hamster ovary cell line expressing the human 5-HT1A receptor subtype (5-HT1A.CHO cells) was employed throughout this study. Cells were maintained in DMEM supplemented with 10% foetal calf serum, non-essential amino acids and penicillin/streptomycin.
Cells were grown to 95-100% confluency as a monolayer before membranes were harvested for binding studies. Cells were gently scraped from the culture plates, transferred to centrifuge tubes, and washed twice by centrifugation (2000 rpm for 10 min., 4° C.) in buffer (50 mM Tris; pH 7.5). The resulting pellets were aliquoted and placed at -80° C. On the day of assay, the cells were thawed on ice, and resuspended in buffer. Studies were conducted using [^3 H]8-OH-DPAT as the radioligand. The binding assay was performed in 96 well microtiter plates in a final total volume of 250 μL of buffer. Competition experiments were performed by using 7 concentrations of unlabelled drug and a final ligand concentration of 1.5 nM . Non-specific binding was determined in the presence of 10 μM 5HT. Saturation analysis was conducted by using [^3 H]8-OH-DPAT at concentrations ranging from 0.3-30 nM. Following a 30 minute incubation at room temperature, the reaction was terminated by the addition of ice cold buffer and rapid filtration using a M-96 Brandel Cell Harvester (Gaithersburg, Md.) through a GF/B filter presoaked for 30 minutes in 0.5% polyethyleneimine.

5-HT1A cloned receptor = target: T2, 5-HT1A cloned receptor (Homo sapiens, UniProt P08908); experiment: [35S]-GTPγS binding assay, 5-HT1A cloned receptor membranes; type: biochemical; settings: maximum agonist response defined by excess 8-OH-DPAT
T2 construct: expressed in transfected cells
T2 sequence (P08908 1-422): T1 sequence (P08908 1-422)
From the text: as §1
The [^35 S]-GTPγS binding assay was similar to that used by Lazareno and Birdsall, Br. J. Pharmacol. 109:1120 (1993). Briefly, 5-HT1A cloned receptor membrane fragments (as used for 5-HT1A receptor binding assays) were stored at -70° C. until needed. When needed, membranes were rapidly thawed, centrifuged at 40,000×g for 10 minutes and resuspended at 4° C. for 10 minutes in assay buffer ([…], 3 mM MgCl2, 100 mM NaCl, 1 mM EDTA, 10 uM GDP, […], pH 8.0). These membranes were then incubated for 30 min at 30° C. with [^35 S]GTPgS (1 nM) in the presence of vehicle, test compound (one to eight concentrations), or excess 8-OH-DPAT to define maximum agonist response. All reactions are terminated by the addition of ice cold Tris buffer followed by rapid filtration using a Tom Tech® filtration device to separate bound from free [^35 S]GTPgS. […] Bound radioactivity was counted and analyzed as above.

serotonin transporter = target: T3, serotonin transporter (Rattus norvegicus, UniProt P31652); experiment: serotonin transporter (ST) affinity, 3H-paroxetine binding in frontal cortical membranes; parameters: species or system male Sprague-Dawley rats
T3 construct: frontal cortical membranes prepared from male Sprague-Dawley rats; from tissue; host or cells: frontal cortical membranes of male Sprague-Dawley rats
Protocol: Briefly, frontal cortical membranes prepared from male Sprague-Dawley rats were incubated with ^3 H-paroxetine (0.1 nM) for 60 min at 25° C. All tubes also contained either vehicle, test compound (one to eight concentrations), or a saturating concentration of fluoxetine (10 μM) to define […]. All reactions are terminated by the addition of ice cold Tris buffer followed by rapid filtration using a Tom Tech filtration device to separate bound from free ^3 H-paroxetine.

T3 sequence (P31652 whole entry): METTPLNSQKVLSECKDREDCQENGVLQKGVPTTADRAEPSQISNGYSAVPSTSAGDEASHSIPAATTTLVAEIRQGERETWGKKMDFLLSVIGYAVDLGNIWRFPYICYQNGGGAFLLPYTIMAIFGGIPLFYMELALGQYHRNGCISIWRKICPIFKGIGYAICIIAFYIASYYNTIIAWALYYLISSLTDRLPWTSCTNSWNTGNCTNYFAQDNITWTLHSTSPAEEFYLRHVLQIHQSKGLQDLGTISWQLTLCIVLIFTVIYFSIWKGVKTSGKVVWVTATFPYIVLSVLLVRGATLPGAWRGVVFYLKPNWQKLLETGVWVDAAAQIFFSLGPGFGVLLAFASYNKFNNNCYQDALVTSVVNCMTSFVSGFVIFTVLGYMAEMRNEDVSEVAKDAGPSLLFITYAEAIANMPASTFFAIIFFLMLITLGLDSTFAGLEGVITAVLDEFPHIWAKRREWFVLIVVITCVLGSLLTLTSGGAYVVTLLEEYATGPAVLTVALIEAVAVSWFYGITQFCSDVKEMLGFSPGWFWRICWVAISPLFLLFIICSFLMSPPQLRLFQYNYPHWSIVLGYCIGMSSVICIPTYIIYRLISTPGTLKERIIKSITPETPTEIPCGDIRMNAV

Structure (SMILES)	inhibition at 1 µM (human 5-HT1A receptor)	inhibition at 0.01 µM (human 5-HT1A receptor)	further results
Fc1cc2c(c(OCCN[C@H]3CC[C@@H](c4c[nH]c5ccc(F)cc54)CC3)c1)OCCC2 [Example 5a, [2-(6-Fluoro-chroman-8-yloxy)-ethyl]-[(1,4-cis)-4-(5-fluoro-1H-indol-3-yl)-cyclohexyl]-amine]	49%		
COc1ccccc1OCCNCC1CCC(c2c[nH]c3ccc(C#N)cc23)CC1 (centres unmarked) [Example 10b, 3-(4-{[2-(Methoxy-phenoxy)-ethylamino]-methyl}-cyclohexyl)-1H-indole-5-carbonitrile]		7%	
OC1(CNCCOc2cccc3[nH]ccc23)CCC(c2c[nH]c3ccc(F)cc23)CC1 (centres unmarked) [Example 13, (1,4)-4-(5-Fluoro-1H-indol-3-yl)-1-{[2-(1H-indol-4-yloxy)-ethylamino]-methyl}-cyclohexanol]			Ki (human 5-HT1A receptor; [3H]8-OH-DPAT 1.5 nM, 30 minutes, room temperature, read-out: 5-HT1A (Ki)): 257 nM
N#Cc1ccc2[nH]cc([C@H]3CC[C@@H](NCCOc4cc(F)cc5c4OCC5)CC3)c2c1 [Example 6a]	49%		
COc1cc(F)ccc1OCCN[C@H]1CC[C@@H](c2c[nH]c3ccc(F)cc32)CC1 [Example 9a, [(1,4-cis)-4-(5-Fluoro-1H-indol-3-yl)-cyclohexyl]-[2-(4-fluoro-2-methoxy-phenoxy)-ethyl]-amine]		16%	
COc1cc(S(C)(=O)=O)c(F)cc1OCCN[C@H]1CC[C@H](c2c[nH]c3ccc(F)cc32)CC1 [Example 12, [(1,4-trans)-4-(5-Fluoro-1H-indol-3-yl)-cyclohexyl]-[2-(5-fluoro-4-methanesulfonyl-2-methoxy-phenoxy)-ethyl]-amine]		0%	
COc1cc(F)c(F)cc1OCCN[C@H]1CC[C@@H](c2c[nH]c3ccc(F)cc32)CC1 [Example 11a, (1,4-cis)-[2-(4,5-Difluoro-2-methoxy-phenoxy)-ethyl]-[4-(5-fluoro-1H-indol-3-yl)-cyclohexyl]-amine]		0%	
COc1ccccc1OCCNC[C@H]1CC[C@H](c2c[nH]c3ccc(F)cc32)CC1 [Example 10a, [(1,4-trans)-4-(5-Fluoro-1H-indol-3-yl)-cyclohexylmethyl]-[2-(2-methoxy-phenoxy)-ethyl]-amine]			Ki (human 5-HT1A receptor): 26.8 nM; Emax (5-HT1A cloned receptor): 60%; Ki (serotonin transporter): 7.33 nM
Cn1cc([C@H]2CC[C@@H](NCCOc3cc(F)cc4c3OCCC4)CC2)c2cc(C#N)ccc21 [Example 5c, 3-{(1,4-cis)-4-[2-(6-Fluoro-chroman-8-yloxy)-ethylamino]-cyclohexyl}-1-methyl-1H-indole-5-carbonitrile]	47%		
